Laboratory results published in the supplement of paper PMC10307832.

Assays:
Test in all cases: relative viability (nuclei count vs DMSO), 5 days (fraction); higher = more cells survive
[1] = compound: C1COCCN1CC2=CC(=O)C(=CO2)OCCCCCSC3=C4C=CC(=CC4=NC=C3)C(F)(F)F [EHT 1864] + Cc1nc(NC(=O)N2CCC[C@H]2C(N)=O)sc1-c1ccnc(C(C)(C)C(F)(F)F)c1 [Alpelisib] (partner 2 µM)
How it was run: (§1)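 Relative viability is defined as nuclei in treated wells over nuclei in vehicle wells. Duplicate plates were run and medians reported. Lung cancer cell lines in 1536-well plates were dosed by pin tool one day after seeding, with one drug or with a fixed anchor-drug dose plus five library-drug doses (not always all listed) in √10 steps, and nuclei were counted after 5 days.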

[2] = compound: C1COCCN1CC2=CC(=O)C(=CO2)OCCCCCSC3=C4C=CC(=CC4=NC=C3)C(F)(F)F [EHT 1864] + Nc1nc2[nH]cc(CCc3ccc(C(=O)N[C@@H](CCC(=O)O)C(=O)O)cc3)c2c(=O)[nH]1 [Pemetrexed] (partner 0.2 µM)
How it was run: as §1

[3] = compound: C1COCCN1CC2=CC(=O)C(=CO2)OCCCCCSC3=C4C=CC(=CC4=NC=C3)C(F)(F)F [EHT 1864] + O=C(c1cc(Cc2n[nH]c(=O)c3ccccc23)ccc1F)N1CCN(C(=O)C2CC2)CC1 [Olaparib] (partner 8 µM)
How it was run: as §1

[4] = compound: C1COCCN1CC2=CC(=O)C(=CO2)OCCCCCSC3=C4C=CC(=CC4=NC=C3)C(F)(F)F [EHT 1864] + COc1cc2c(Oc3ccc(NC(=O)C4(C(=O)Nc5ccc(F)cc5)CC4)cc3F)ccnc2cc1OCCCN1CCOCC1 [Foretinib] (partner 0.25 µM)
How it was run: as §1

| Cell Line | relative viability ([1]; first compound 0.04 µM) | relative viability ([1]; first compound 0.1265 µM) | relative viability ([1]; first compound 0.4 µM) | relative viability ([1]; first compound 1.265 µM) | relative viability ([1]; first compound 4 µM) | relative viability ([2]; first compound 0.04 µM) | relative viability ([2]; first compound 0.1265 µM) | relative viability ([2]; first compound 0.4 µM) | relative viability ([2]; first compound 1.265 µM) | relative viability ([2]; first compound 4 µM) | relative viability ([3]; first compound 0.04 µM) | relative viability ([3]; first compound 0.1265 µM) | relative viability ([3]; first compound 0.4 µM) | relative viability ([3]; first compound 1.265 µM) | relative viability ([3]; first compound 4 µM) | relative viability ([4]; first compound 0.04 µM) | relative viability ([4]; first compound 0.1265 µM) | relative viability ([4]; first compound 0.4 µM) | relative viability ([4]; first compound 1.265 µM) | relative viability ([4]; first compound 4 µM) |
| --- | --- | --- | --- | --- | --- | --- | --- | --- | --- | --- | --- | --- | --- | --- | --- | --- | --- | --- | --- | --- |
| RERF-LC-KJ | 0.759 | 0.743 | 0.755 | 0.947 | 0.776 | 0.46 | 0.443 | 0.484 | 0.462 | 0.504 | 0.902 | 0.86 | 0.849 | 0.913 | 0.76 | 1.01 | 0.838 | 0.834 | 0.896 | 0.893 |
| NCI-H1915 | 1.12 |  | 0.988 | 1.05 | 1.05 | 0.474 |  | 0.52 | 0.5 | 0.477 | 0.287 |  | 0.251 | 0.257 | 0.257 | 1.07 |  | 1 | 1.07 | 1.08 |
| NCI-H596 | 0.524 | 0.529 | 0.506 | 0.434 | 0.514 | 0.554 | 0.513 | 0.447 | 0.575 | 0.468 | 0.773 | 0.719 | 0.8 | 0.781 | 0.777 | 0.836 | 0.701 | 0.752 | 0.745 | 0.821 |
| NCI-H2009 | 1.16 | 1.13 | 1.11 | 1.12 | 0.971 | 1.01 | 0.95 | 1.01 | 0.965 | 0.809 | 0.618 | 0.548 | 0.702 | 0.66 | 0.49 | 1.17 | 1.12 | 1.22 | 1.2 | 1.07 |
| NCI-H2126 | 0.755 | 0.757 | 0.718 | 0.801 | 0.748 | 0.707 | 0.603 | 0.661 | 0.726 | 0.633 | 0.916 | 0.926 | 0.887 | 0.882 | 0.915 | 1.17 | 1.22 | 1.19 | 1.22 | 1.22 |
| LXF-289 | 1.1 | 1 | 1 | 0.968 | 0.912 | 0.857 | 0.894 | 0.835 | 0.769 | 0.843 | 1.12 | 0.963 | 1.02 | 0.953 | 0.97 | 0.976 | 0.961 | 0.947 | 0.925 | 0.851 |
| PC-14 | 0.916 | 0.888 | 0.952 | 0.901 | 0.846 | 0.121 | 0.124 | 0.137 | 0.133 | 0.133 | 0.264 | 0.36 | 0.266 | 0.331 | 0.265 | 0.997 | 0.906 | 0.994 | 0.932 | 0.878 |
| HOP-62 | 1.03 |  | 0.838 | 0.796 | 0.884 | 0.438 |  | 0.269 | 0.388 | 0.314 | 0.448 |  | 0.435 | 0.438 | 0.453 | 1.02 |  | 1.03 | 0.991 | 1.13 |
